Measurements as given in patent US12139520B2 (priority 2020, dated 2024).
Bridge positions count the residues as written; N and C are the ends. Square brackets hold non-standard residues; d marks the D form. Peptide text beside a SMILES is read from it. Hyp = O=C(O)[C@@H]1C[C@@H](O)CN1; Cit = NC(=O)NCCC[C@H](N)C(=O)O

Assays:
[1] = target: T1, hAMY3 receptor (Homo sapiens, UniProt O60896+P30988); experiment: cAMP assay for in vitro receptor activation, hAMY3-R; type: cell-based; conditions: cAMP assay, hAMY3 receptor; read-out: hAMY3R EC50
T1 sequence (P30988 25-474): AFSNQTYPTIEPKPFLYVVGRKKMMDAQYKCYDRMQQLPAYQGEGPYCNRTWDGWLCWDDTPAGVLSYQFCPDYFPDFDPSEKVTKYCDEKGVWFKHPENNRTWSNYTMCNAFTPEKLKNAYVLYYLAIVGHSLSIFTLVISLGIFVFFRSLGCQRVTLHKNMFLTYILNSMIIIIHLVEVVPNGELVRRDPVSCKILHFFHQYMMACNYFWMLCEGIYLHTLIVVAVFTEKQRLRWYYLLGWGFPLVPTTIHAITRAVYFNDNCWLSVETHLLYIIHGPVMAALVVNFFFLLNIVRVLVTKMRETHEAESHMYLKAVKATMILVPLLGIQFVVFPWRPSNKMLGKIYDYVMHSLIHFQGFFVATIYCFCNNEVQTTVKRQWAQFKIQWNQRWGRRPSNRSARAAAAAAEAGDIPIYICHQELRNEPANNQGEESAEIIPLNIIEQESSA
T1 sequence (O60896 24-148 partner): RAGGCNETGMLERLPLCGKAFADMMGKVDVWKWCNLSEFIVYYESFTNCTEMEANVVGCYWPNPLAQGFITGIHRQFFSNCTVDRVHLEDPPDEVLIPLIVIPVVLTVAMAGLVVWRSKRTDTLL
Method in brief: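 Stable hAMY3 cells; DPBS + 0.05% casein + 0.5 mM IBMX; graded compound doses, 30 min, RT; cAMP via HTRF Gs kit, TR-FRET read at 1 h.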

[2] = Physical stability of peptide analogues (Thioflavin T fibrillation); type: physicochemical; conditions: maximum ThT signal normalized between hAMY maximum and buffer background; 40° C., shaking, four days; pH 7 per table title
Method in brief: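 Samples are stressed at 40 °C for four days, being shaken at 700 rpm before each 10-min fluorescence reading of 4 μM Thioflavin T. Buffers were pH 4 acetate or pH 7 phosphate. Reported values are smoothed maximum ThT signals as a percentage of the hAMY-to-background range.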

Row | SMILES | EC50 [1] [nM] | Max ThT signal (%) [2] [%]
1 | CC[C@H](C)[C@H](NC(=O)[C@H](CCCCN)NC(=O)[C@@H](NC(=O)[C@H](CCCNC(=N)N)NC(=O)[C@@H]1CCCN1C(=O)[C@H](C)NC(=O)[C@@H](NC(=O)[C@H](CC(N)=O)NC(=O)[C@H](CC(=O)O)NC(=O)[C@H](CCCCN)NC(=O)[C@H](CC(=O)O)NC(=O)[C@H](CCCCN)NC(=O)[C@H](CC(=O)O)NC(=O)[C@@H](NC(=O)[C@H](Cc1ccccc1)NC(=O)[C@H](CCC(N)=O)NC(=O)[C@H](Cc1ccc(O)cc1)NC(=O)[C@@H](NC(=O)[C@H](CCC(N)=O)NC(=O)[C@H](Cc1c[nH]cn1)NC(=O)[C@H](C)NC(=O)[C@H](CC(C)C)NC(=O)[C@H](CCCNC(=N)N)NC(=O)[C@H](CCC(N)=O)NC(=O)[C@@H](NC(=O)[C@@H](NC(=O)[C@@H]1CSSC[C@H](NC(=O)CN)C(=O)N[C@@H](CCCNC(=N)N)C(=O)N[C@@H]([C@@H](C)O)C(=O)NCC(=O)N[C@@H]([C@@H](C)O)C(=O)N1)[C@@H](C)O)C(C)C)[C@@H](C)CC)[C@@H](C)O)C(C)C)[C@@H](C)O)C(=O)NCC(=O)N1CCC[C@H]1C(=O)N[C@@H](CCC(N)=O)C(=O)NCC(=O)N1C[C@H](O)C[C@H]1C(N)=O [compound 161] (H-GCRTGTCTVQRLAHQIYQFTDKDKDNVAPRTKIGPQG[Hyp]-NH2; disulfide 2-7; N-terminus assumed) | 0.051 | 14.300
2 | CC[C@H](C)[C@H](NC(=O)[C@H](CCC(N)=O)NC(=O)[C@H](Cc1c[nH]cn1)NC(=O)[C@H](C)NC(=O)[C@H](CC(C)C)NC(=O)[C@H](CCCNC(N)=O)NC(=O)[C@H](CCC(N)=O)NC(=O)[C@@H](NC(=O)[C@@H](NC(=O)[C@@H]1CSSC[C@H](NC(=O)CN)C(=O)N[C@@H](CCCNC(=N)N)C(=O)N[C@@H]([C@@H](C)O)C(=O)NCC(=O)N[C@@H]([C@@H](C)O)C(=O)N1)[C@@H](C)O)C(C)C)C(=O)N[C@@H](Cc1ccc(O)cc1)C(=O)N[C@@H](CCC(N)=O)C(=O)N[C@@H](Cc1ccccc1)C(=O)N[C@H](C(=O)N[C@@H](CC(=O)O)C(=O)N[C@@H](CCCCN)C(=O)N[C@@H](CC(=O)O)C(=O)N[C@@H](CCCCN)C(=O)N[C@@H](CC(=O)O)C(=O)N[C@@H](CC(N)=O)C(=O)N[C@H](C(=O)N[C@@H](C)C(=O)N1CCC[C@H]1C(=O)N[C@@H](CCCNC(=N)N)C(=O)N[C@H](C(=O)N[C@@H](CC(N)=O)C(=O)N[C@H](C(=O)N[C@@H](CO)C(=O)N1CCC[C@H]1C(=O)N[C@@H](CC(N)=O)C(=O)NCC(=O)N1C[C@H](O)C[C@H]1C(N)=O)C(C)C)[C@@H](C)O)C(C)C)[C@@H](C)O [compound 302] (H-GCRTGTCTVQ[Cit]LAHQIYQFTDKDKDNVAPRTNVSPNG[Hyp]-NH2; disulfide 2-7; N-terminus assumed) | 0.071 | 24.250

Now those with a lower EC50 [1], led by results:

Row | EC50 [1] [nM] | Max ThT signal (%) [2] [%] | SMILES
3 | 0.035 | 4.800 | CC[C@H](C)[C@H](NC(=O)[C@H](CCC(N)=O)NC(=O)[C@H](Cc1c[nH]cn1)NC(=O)[C@H](C)NC(=O)[C@H](CC(C)C)NC(=O)[C@H](CCCNC(=N)N)NC(=O)[C@H](CCC(N)=O)NC(=O)[C@@H](NC(=O)[C@@H](NC(=O)[C@@H]1CSSC[C@H](NC(=O)CN)C(=O)N[C@@H](CCCNC(=N)N)C(=O)N[C@@H]([C@@H](C)O)C(=O)NCC(=O)N[C@@H]([C@@H](C)O)C(=O)N1)[C@@H](C)O)C(C)C)C(=O)N[C@@H](Cc1ccc(O)cc1)C(=O)N[C@@H](CCC(N)=O)C(=O)N[C@@H](Cc1ccccc1)C(=O)N[C@H](C(=O)N[C@@H](CC(=O)O)C(=O)N[C@@H](CCCCN)C(=O)N[C@@H](CC(=O)O)C(=O)N[C@@H](CCCCN)C(=O)N[C@@H](CC(=O)O)C(=O)N[C@@H](CC(N)=O)C(=O)N[C@H](C(=O)N[C@@H](C)C(=O)N1CCC[C@H]1C(=O)N[C@@H](CCCNC(=N)N)C(=O)N[C@@H](CO)C(=O)N[C@@H](CCCCN)C(=O)N[C@H](C(=O)NCC(=O)N1CCC[C@H]1C(=O)N[C@@H](CC(N)=O)C(=O)NCC(=O)N1C[C@H](O)C[C@H]1C(N)=O)C(C)C)C(C)C)[C@@H](C)O [compound 139] (H-GCRTGTCTVQRLAHQIYQFTDKDKDNVAPRSKVGPNG[Hyp]-NH2; disulfide 2-7; N-terminus assumed)
4 | 0.025 | 2.900 | CC[C@H](C)[C@H](NC(=O)[C@H](CCC(N)=O)NC(=O)[C@H](Cc1c[nH]cn1)NC(=O)[C@H](C)NC(=O)[C@H](CC(C)C)NC(=O)[C@H](CCCNC(N)=O)NC(=O)[C@H](CCC(N)=O)NC(=O)[C@@H](NC(=O)[C@@H](NC(=O)[C@@H]1CSSC[C@H](NC(=O)CN)C(=O)N[C@@H](CCCNC(=N)N)C(=O)N[C@@H](Cc2ccccc2)C(=O)NCC(=O)N[C@@H]([C@@H](C)O)C(=O)N1)[C@@H](C)O)C(C)C)C(=O)N[C@@H](Cc1ccc(O)cc1)C(=O)N[C@@H](CCC(N)=O)C(=O)N[C@@H](Cc1ccccc1)C(=O)N[C@H](C(=O)N[C@@H](CC(=O)O)C(=O)N[C@@H](CCCCN)C(=O)N[C@@H](CC(=O)O)C(=O)N[C@@H](CCCCN)C(=O)N[C@@H](CC(=O)O)C(=O)N[C@@H](CC(N)=O)C(=O)N[C@H](C(=O)N[C@@H](C)C(=O)N1CCC[C@H]1C(=O)N[C@@H](CCCNC(=N)N)C(=O)N[C@@H](CO)C(=O)N[C@@H](CC(N)=O)C(=O)N[C@H](C(=O)N[C@@H](CO)C(=O)N1CCC[C@H]1C(=O)N[C@@H](CCC(N)=O)C(=O)NCC(=O)N[C@@H](Cc1ccc(O)cc1)C(N)=O)C(C)C)C(C)C)[C@@H](C)O [compound 286] (H-GCRFGTCTVQ[Cit]LAHQIYQFTDKDKDNVAPRSNVSPQGY-NH2; disulfide 2-7; N-terminus assumed)
5 | 0.029 | 1.400 | CC[C@H](C)[C@H](NC(=O)[C@H](CCC(N)=O)NC(=O)[C@H](Cc1c[nH]cn1)NC(=O)[C@H](C)NC(=O)[C@H](CC(C)C)NC(=O)[C@H](CCCNC(=N)N)NC(=O)[C@H](CCC(N)=O)NC(=O)[C@@H](NC(=O)[C@@H](NC(=O)[C@@H]1CSSC[C@H](NC(=O)CN)C(=O)N[C@@H](CCCNC(=N)N)C(=O)N[C@@H]([C@@H](C)O)C(=O)NCC(=O)N[C@@H]([C@@H](C)O)C(=O)N1)[C@@H](C)O)C(C)C)C(=O)N[C@@H](Cc1ccc(O)cc1)C(=O)N[C@@H](CCC(N)=O)C(=O)N[C@@H](Cc1ccccc1)C(=O)N[C@H](C(=O)N[C@@H](CC(=O)O)C(=O)N[C@@H](CCCCN)C(=O)N[C@@H](CC(=O)O)C(=O)N[C@@H](CCCCN)C(=O)N[C@@H](CC(=O)O)C(=O)N[C@@H](CC(N)=O)C(=O)N[C@H](C(=O)N[C@@H](C)C(=O)N1CCC[C@H]1C(=O)N[C@@H](CCCNC(=N)N)C(=O)N[C@@H](CO)C(=O)N[C@@H](CCCCN)C(=O)N[C@H](C(=O)NCC(=O)N1CCC[C@H]1C(=O)N[C@@H](CCC(N)=O)C(=O)NCC(=O)N[C@@H](Cc1ccc(O)cc1)C(N)=O)C(C)C)C(C)C)[C@@H](C)O [compound 129] (H-GCRTGTCTVQRLAHQIYQFTDKDKDNVAPRSKVGPQGY-NH2; disulfide 2-7)
6 | 0.041 | 1.900 | CC[C@H](C)[C@H](NC(=O)[C@H](CCC(N)=O)NC(=O)[C@H](Cc1c[nH]cn1)NC(=O)[C@H](C)NC(=O)[C@H](CC(C)C)NC(=O)[C@H](CCCNC(=N)N)NC(=O)[C@H](CCC(N)=O)NC(=O)[C@@H](NC(=O)[C@@H](NC(=O)[C@@H]1CSSC[C@H](NC(=O)CN)C(=O)N[C@@H](CCCNC(=N)N)C(=O)N[C@@H](Cc2ccccc2)C(=O)NCC(=O)N[C@@H]([C@@H](C)O)C(=O)N1)[C@@H](C)O)C(C)C)C(=O)N[C@@H](Cc1ccc(O)cc1)C(=O)N[C@@H](CCC(N)=O)C(=O)N[C@@H](Cc1ccccc1)C(=O)N[C@H](C(=O)N[C@@H](CC(=O)O)C(=O)N[C@@H](CCCCN)C(=O)N[C@@H](CC(=O)O)C(=O)N[C@@H](CCCCN)C(=O)N[C@@H](CC(=O)O)C(=O)N[C@@H](CC(N)=O)C(=O)N[C@H](C(=O)N[C@@H](C)C(=O)N1CCC[C@H]1C(=O)N[C@@H](CCCNC(=N)N)C(=O)N[C@@H](CO)C(=O)N[C@@H](CCCCN)C(=O)N[C@H](C(=O)NCC(=O)N1CCC[C@H]1C(=O)N[C@@H](CCC(N)=O)C(=O)NCC(=O)N1C[C@H](O)C[C@H]1C(N)=O)C(C)C)C(C)C)[C@@H](C)O [compound 152] (H-GCRFGTCTVQRLAHQIYQFTDKDKDNVAPRSKVGPQG[Hyp]-NH2; disulfide 2-7; N-terminus assumed)
